Assay results from the NIST ThermoML archive (doi:10.1021/je034209e).
± gives the expanded uncertainty stated by the source. Values belong to the molecule of their own block, whether it stands above or below them.

Experiment: mn = molality of the nth substance listed, in mol/kg
Conditions: 298.15 K, 101.3 kPa, Liquid, Vibrating tube method

Compound: CCC(N)C(=O)O (stereo not drawn) [(.+-.)-α-aminobutyric acid] + O
mass density (m1 = 0.03934): 998.127 ± 1.7 kg/m3
mass density (m1 = 0.08124): 999.275 ± 1.7 kg/m3
mass density (m1 = 0.1445): 1000.99 ± 1.7 kg/m3
mass density (m1 = 0.2022): 1002.54 ± 1.7 kg/m3
mass density (m1 = 0.2374): 1003.48 ± 1.8 kg/m3
mass density (m1 = 0.2864): 1004.78 ± 1.8 kg/m3
mass density (m1 = 0.3179): 1005.6 ± 1.8 kg/m3

Compound: CC(N)C(=O)O (stereo not drawn) [DL-2-aminopropanoic acid] + O
mass density (m1 = 0.0436): 998.297 ± 1.7 kg/m3
mass density (m1 = 0.08036): 999.343 ± 1.7 kg/m3
mass density (m1 = 0.1483): 1001.26 ± 1.7 kg/m3
mass density (m1 = 0.2059): 1002.86 ± 1.7 kg/m3
mass density (m1 = 0.3297): 1006.26 ± 1.8 kg/m3
mass density (m1 = 0.3863): 1007.79 ± 1.8 kg/m3
mass density (m1 = 0.4436): 1009.33 ± 1.8 kg/m3

Compound: CC(C)C[C@H](N)C(=O)O [L-leucine] + O
mass density (m1 = 0.01266): 997.346 ± 1.7 kg/m3
mass density (m1 = 0.01738): 997.458 ± 1.7 kg/m3
mass density (m1 = 0.02274): 997.582 ± 1.7 kg/m3
mass density (m1 = 0.03028): 997.762 ± 1.7 kg/m3
mass density (m1 = 0.03943): 997.975 ± 1.7 kg/m3
mass density (m1 = 0.04666): 998.149 ± 1.7 kg/m3
mass density (m1 = 0.05611): 998.37 ± 1.7 kg/m3

Compound: CC(=O)[O-].[Na+] [sodium ethanoate] + O
mass density (m1 = 0.5): 1023.28 ± 1.8 kg/m3
mass density (m1 = 1): 1047.56 ± 1.8 kg/m3
mass density (m1 = 2): 1086.81 ± 1.9 kg/m3
mass density (m1 = 4): 1123.24 ± 2 kg/m3
mass density (m1 = 5.5): 1139.16 ± 2 kg/m3

The next lines start with the values.

mass density (m1 = 0.09741): 1000.14 ± 1.7 kg/m3
mass density (m1 = 0.2011): 1003.37 ± 1.7 kg/m3
mass density (m1 = 0.3016): 1006.46 ± 1.8 kg/m3
mass density (m1 = 0.3936): 1009.25 ± 1.8 kg/m3
mass density (m1 = 0.4878): 1012.07 ± 1.8 kg/m3
mass density (m1 = 0.5916): 1015.1 ± 1.8 kg/m3
Compound: NCC(=O)O [2-aminoacetic acid] + O

mass density (m1 = 0.01545): 997.721 ± 1.7 kg/m3
mass density (m1 = 0.02099): 997.961 ± 1.7 kg/m3
mass density (m1 = 0.02977): 998.343 ± 1.7 kg/m3
mass density (m1 = 0.03372): 998.516 ± 1.7 kg/m3
mass density (m1 = 0.04624): 999.058 ± 1.7 kg/m3
mass density (m1 = 0.05305): 999.349 ± 1.7 kg/m3
mass density (m1 = 0.05832): 999.577 ± 1.7 kg/m3
Compound: N[C@@H](Cc1ccccc1)C(=O)O [L-phenylalanine] + O
